This is an account of results in US20220204476A1, “RNA VIRUS INHIBITOR COMPOUNDS AND USES THEREOF” (The Governors of the University of Alberta, priority 2020, published 2022).

One data set relates to SARS-CoV-2. As to the kind of experiment: SARS-CoV-2 in vitro plaque reduction assay in Vero E6 cells. Conditions: Severe acute respiratory syndrome coronavirus 2, Vero C1008, MOI 0.0001 pfu/cell, plaques counted after 48 h, >5 μM = did not reduce plaque numbers by half at 10 μM, read-out: SARS-CoV-2 Antiviral EC50. It is filed as cell-based. On the technique in general: Plaque reduction counts the foci of infection that form in a cell layer.

Data set [1] in a line: Cytotoxicity, CellTiter-Glo luminescent cell viability assay. Conditions: human (A549) and green monkey (Vero E6).
A further data set addresses SARS-CoV-2 3CLP (Severe acute respiratory syndrome coronavirus 2, UniProt P0DTD1). As to the kind of experiment: SARS-CoV-2 3CLP inhibition, FRET-based cleavage assay. It counts as biochemical. Conditions: 80 nM SARS-CoV-2 3CLP, 100 μM substrate, 37° C., 10 min incubation, pH 7.8; read-out: 3CL Protease IC50.

The structures appear in SMILES notation. Bounds are passed on as bounds.

Usually EC50 stands for the concentration that produces a half-maximal response. Usually CC50 stands for the concentration giving 50% cytotoxicity. On to `COc1cc(Cl)cc2[nH]c(C(=O)N[C@@H](CC(C)(C)C)C(=O)N[C@H](C#N)C[C@@H]3CCCNC3=O)cc12` [Compound 35, 6-chloro-N-[(2S)-1-({(1S)-1-cyano-2-[(3S)-2-oxopiperidin-3-yl]ethyl}amino)-4,4-dimethyl-1-oxopentan-2-yl]-4-methoxy-1H-indole-2-carboxamide], for which the EC50 in the data set with SARS-CoV-2 stood at 1.5 µM. For the same molecule, the CC50 at 24 h in data set [1] was over 200 µM.

As a reminder, the IC50 is the point on the concentration scale where inhibition reaches its midpoint. For `CC(C)C[C@H](NC(=O)C1(O)CCCC1)C(=O)N[C@H](C#N)C[C@@H]1CCCNC1=O` [Compound 76, N-{(1S)-1-cyano-2-[(3S)-2-oxopiperidin-3-yl]ethyl}-N^2-(1-hydroxycyclopentane-1-carbonyl)-L-leucinamide], the IC50 at SARS-CoV-2 3CLP came to 0.95 µM. Moreover, in the data set on SARS-CoV-2, the EC50 is over 5 µM.

On to `CC(C)C[C@H](NCC1CC1)C(=O)N[C@H](C#N)C[C@@H]1CCCNC1=O` [Compound 77, N-{(1S)-1-cyano-2-[(3S)-2-oxopiperidin-3-yl]ethyl}-N^2-(cyclopropylmethyl)-L-leucinamide], for which the IC50 at SARS-CoV-2 3CLP was determined as 17 µM. In the data set with SARS-CoV-2, the EC50 was over 5 µM.

For `CC(C)C[C@H](NCc1ccc[nH]c1=O)C(=O)N[C@H](C#N)C[C@@H]1CCCNC1=O` [Compound 78, N-{(1S)-1-cyano-2-[(3S)-2-oxopiperidin-3-yl]ethyl}-N^2-[(2-oxo-1,2-dihydropyridin-3-yl)methyl]-L-leucinamide], the IC50 on SARS-CoV-2 3CLP amounted to 47 µM. Further, the concentration giving a half-maximal response (EC50) in the data set with SARS-CoV-2 is over 5 µM.

Take `CC(C)C[C@H](NC(=O)c1cc2ccccc2o1)C(=O)N[C@H](C#N)C[C@@H]1CCCNC1=O` [Compound 79, N-[(2S)-1-({(1S)-1-cyano-2-[(3S)-2-oxopiperidin-3-yl]ethyl}amino)-4-methyl-1-oxopentan-2-yl]-1-benzofuran-2-carboxamide]: on SARS-CoV-2 3CLP, the IC50 was 0.25 µM. Moreover, the EC50 in the data set with SARS-CoV-2 was 4.5 µM.

Turning to `CC(C)C[C@H](NC(=O)[C@H]1CCCO1)C(=O)N[C@H](C#N)C[C@@H]1CCCNC1=O` [Compound 80, N-{(1S)-1-cyano-2-[(3S)-2-oxopiperidin-3-yl]ethyl}-N^2-[(2R)-oxolane-2-carbonyl]-L-leucinamide], the IC50 on SARS-CoV-2 3CLP turned out to be 0.71 µM. Moreover, the EC50 with SARS-CoV-2 was over 5 µM.

In the case of `Cc1ccc(C(=O)N[C@@H](CC(C)C)C(=O)N[C@H](C#N)C[C@@H]2CCCNC2=O)cn1` [Compound 81, N-{(1S)-1-cyano-2-[(3S)-2-oxopiperidin-3-yl]ethyl}-N^2-(6-methylpyridine-3-carbonyl)-L-leucinamide], the IC50 at SARS-CoV-2 3CLP came to 0.62 µM. Further, the EC50 with SARS-CoV-2 is over 5 µM.

Regarding `CC(C)C[C@H](NS(=O)(=O)c1cccc2c1OCCO2)C(=O)N[C@H](C#N)C[C@@H]1CCCNC1=O` [Compound 82, N-{(1S)-1-cyano-2-[(3S)-2-oxopiperidin-3-yl]ethyl}-N^2-(2,3-dihydro-1,4-benzodioxine-5-sulfonyl)-L-leucinamide], the IC50 at SARS-CoV-2 3CLP came to 2.4 µM. Further, in the data set with SARS-CoV-2, the EC50 was over 5 µM.

On to `CC(C)C[C@H](NS(=O)(=O)N1CCCCC1)C(=O)N[C@H](C#N)C[C@@H]1CCCNC1=O` [Compound 83, N-{(1S)-1-cyano-2-[(3S)-2-oxopiperidin-3-yl]ethyl}-N^2-(piperidine-1-sulfonyl)-L-leucinamide], for which the IC50 on SARS-CoV-2 3CLP turned out to be 4.5 µM. For the same molecule, the EC50 in the data set on SARS-CoV-2 is over 5 µM.

With `CC(C)C[C@H](NS(=O)(=O)C1CCCCC1)C(=O)N[C@H](C#N)C[C@@H]1CCCNC1=O` [Compound 84, N-{(1S)-1-cyano-2-[(3S)-2-oxopiperidin-3-yl]ethyl}-N^2-(cyclohexanesulfonyl)-L-leucinamide], the IC50 at SARS-CoV-2 3CLP was 3.1 µM. For the same molecule, the EC50 in the data set on SARS-CoV-2 is over 5 µM.

For `Cc1ccc(S(=O)(=O)N[C@@H](CC(C)C)C(=O)N[C@H](C#N)C[C@@H]2CCCNC2=O)cn1` [Compound 85, N-{(1S)-1-cyano-2-[(3S)-2-oxopiperidin-3-yl]ethyl}-N^2-(6-methylpyridine-3-sulfonyl)-L-leucinamide], on SARS-CoV-2 3CLP, the IC50 stood at 6.4 µM. In the data set on SARS-CoV-2, the EC50 was over 5 µM.

With `CC(C)(C)C[C@H](NC(=O)OCC1c2ccccc2-c2ccccc21)C(=O)N[C@H](C#N)C[C@@H]1CCCNC1=O` [Compound 86, N-{(1S)-1-cyano-2-[(3S)-2-oxopiperidin-3-yl]ethyl}-N^2-{[(9H-fluoren-9-yl)methoxy]carbonyl}-4-methyl-L-leucinamide], the IC50 at SARS-CoV-2 3CLP was 0.11 µM. The EC50 in the data set on SARS-CoV-2 was 4.3 µM.

For the molecule `Cc1cc(C)c(C(=O)OCC(=O)[C@H](C[C@@H]2CCCNC2=O)NC(=O)[C@H](CC(C)(C)C)NC(=O)[C@H]2CCCO2)c(C)n1` [Compound 87, (3S)-3-({4-methyl-N-[(2R)-oxolane-2-carbonyl]-L-leucyl}amino)-2-oxo-4-[(3S)-2-oxopiperidin-3-yl]butyl 2,4,6-trimethylpyridine-3-carboxylate], the IC50 at SARS-CoV-2 3CLP was 0.2 µM. Further, the EC50 with SARS-CoV-2 came to 1.9 µM.

As for `CC(C)(C)C[C@H](NC(=O)c1nc2ccccc2[nH]1)C(=O)N[C@H](C#N)C[C@@H]1CCCNC1=O` [Compound 88, N-[(2S)-1-({(1S)-1-cyano-2-[(3S)-2-oxopiperidin-3-yl]ethyl}amino)-4,4-dimethyl-1-oxopentan-2-yl]-1H-benzimidazole-2-carboxamide], the IC50 on SARS-CoV-2 3CLP was determined as 0.04 µM. In the data set with SARS-CoV-2, the half-maximal effective concentration (EC50) is over 5 µM.

On to `CC(C)(C)C[C@H](NC(=O)[C@@H]1CCCN1C(=O)OCc1ccccc1)C(=O)N[C@H](C#N)C[C@@H]1CCCNC1=O` [Compound 89, 1-[(benzyloxy)carbonyl]prolyl-N-{(1S)-1-cyano-2-[(3S)-2-oxopiperidin-3-yl]ethyl}-4-methyl-L-leucinamide], for which the IC50 at SARS-CoV-2 3CLP is 2.8 µM. Further, in the data set with SARS-CoV-2, the EC50 was over 5 µM.

Take `CC(C)(C)C[C@H](NC(=O)[C@@H]1CCCN1)C(=O)N[C@H](C#N)C[C@@H]1CCCNC1=O` [Compound 90, prolyl-N-{(1S)-1-cyano-2-[(3S)-2-oxopiperidin-3-yl]ethyl}-4-methyl-L-leucinamide]: at SARS-CoV-2 3CLP, the IC50 was 1.1 µM. In addition, in the data set with SARS-CoV-2, the EC50 is over 5 µM.

Consider `CC(C)C[C@H](NCc1ncco1)C(=O)N[C@H](C#N)C[C@@H]1CCCNC1=O` [Compound 91, N-{(1S)-1-cyano-2-[(3S)-2-oxopiperidin-3-yl]ethyl}-N^2-[(1,3-oxazol-2-yl)methyl]-L-leucinamide], for which the IC50 at SARS-CoV-2 3CLP was 37 µM. In addition, in the data set on SARS-CoV-2, the EC50 was over 5 µM.

On to `CC(C)C[C@H](NC[C@@H]1CCCO1)C(=O)N[C@H](C#N)C[C@@H]1CCCNC1=O` [Compound 92, N-{(1S)-1-cyano-2-[(3S)-2-oxopiperidin-3-yl]ethyl}-N^2-{[(2S)-oxolan-2-yl]methyl}-L-leucinamide], for which the IC50 at SARS-CoV-2 3CLP is 104 µM. Moreover, in the data set with SARS-CoV-2, the EC50 was over 5 µM.

For the molecule `COc1cccc2oc(C(=O)N[C@@H](CC(C)(C)C)C(=O)N[C@H](C#N)C[C@@H]3CCCNC3=O)cc12` [Compound 93, N-[(2S)-1-({(1S)-1-cyano-2-[(3S)-2-oxopiperidin-3-yl]ethyl}amino)-4,4-dimethyl-1-oxopentan-2-yl]-4-methoxy-1-benzofuran-2-carboxamide], on SARS-CoV-2 3CLP, the IC50 came to 0.24 µM. The EC50 with SARS-CoV-2 is over 5 µM.

For `N#C[C@H](C[C@@H]1CCNC1=O)NC(=O)[C@H](CC1CCCCC1)NC(=O)OCc1cccc(Cl)c1` [Compound 94, (3-chlorophenyl)methyl [(2S)-1-({(1S)-1-cyano-2-[(3S)-2-oxopyrrolidin-3-yl]ethyl}amino)-3-cyclohexyl-1-oxopropan-2-yl]carbamate], the IC50 on SARS-CoV-2 3CLP came out at 0.16 µM. Further, the EC50 with SARS-CoV-2 was over 5 µM.

Turning to `CC(C)C[C@H](NCC1CCCCC1)C(=O)N[C@H](C#N)C[C@@H]1CCCNC1=O` [Compound 95, N-{(1S)-1-cyano-2-[(3S)-2-oxopiperidin-3-yl]ethyl}-N^2-(cyclohexylmethyl)-L-leucinamide], the IC50 at SARS-CoV-2 3CLP came to 97 µM. In addition, the concentration for a half-maximal effect (EC50) with SARS-CoV-2 is over 5 µM.

Turning to `COc1nccc2[nH]c(C(=O)N[C@@H](CC(C)(C)C)C(=O)N[C@H](C#N)C[C@@H]3CCCNC3=O)cc12` [Compound 99, N-[(2S)-1-({(1S)-1-cyano-2-[(3S)-2-oxopiperidin-3-yl]ethyl}amino)-4,4-dimethyl-1-oxopentan-2-yl]-4-methoxy-1H-pyrrolo[3,2-c]pyridine-2-carboxamide], the IC50 on SARS-CoV-2 3CLP was determined as 0.022 µM. Moreover, in the data set on SARS-CoV-2, the EC50 is over 5 µM.

Take `COc1nccc2c1cc(C(=O)N[C@@H](CC(C)(C)C)C(=O)N[C@H](C#N)C[C@@H]1CCCNC1=O)n2C` [Compound 100, N-[(2S)-1-({(1S)-1-cyano-2-[(3S)-2-oxopiperidin-3-yl]ethyl}amino)-4,4-dimethyl-1-oxopentan-2-yl]-4-methoxy-1-methyl-1H-pyrrolo[3,2-c]pyridine-2-carboxamide]: the IC50 on SARS-CoV-2 3CLP was 0.22 µM. The EC50 in the data set with SARS-CoV-2 is over 5 µM.

Take `CC(C)(C)C[C@H](NC(=O)[C@H]1Cc2ccccc2N1C(=O)OCc1ccccc1)C(=O)N[C@H](C#N)C[C@@H]1CCCNC1=O` [Compound 101, benzyl (2R)-2-{[(2S)-1-({(1S)-1-cyano-2-[(3S)-2-oxopiperidin-3-yl]ethyl}amino)-4,4-dimethyl-1-oxopentan-2-yl]carbamoyl}-2,3-dihydro-1H-indole-1-carboxylate]: the IC50 at SARS-CoV-2 3CLP is 0.18 µM. In addition, in the data set with SARS-CoV-2, the EC50 is over 5 µM.

As for `CC(C)(C)C[C@H](NC(=O)[C@H]1Cc2ccccc2N1)C(=O)N[C@H](C#N)C[C@@H]1CCCNC1=O` [Compound 102, (2R)—N-[(2S)-1-({(1S)-1-cyano-2-[(3S)-2-oxopiperidin-3-yl]ethyl}amino)-4,4-dimethyl-1-oxopentan-2-yl]-2,3-dihydro-1H-indole-2-carboxamide], the IC50 at SARS-CoV-2 3CLP came to 0.14 µM. The EC50 with SARS-CoV-2 is over 5 µM.

`CC(C)C[C@H](NC(=O)[C@@H]1C[C@H]1c1ccccc1)C(=O)N[C@H](C#N)C[C@@H]1CCCNC1=O` [Compound 106, N-{(1S)-1-cyano-2-[(3S)-2-oxopiperidin-3-yl]ethyl}-N^2-[(1R,2R)-2-phenylcyclopropane-1-carbonyl]-L-leucinamide]: the IC50 on SARS-CoV-2 3CLP was 0.069 µM. Besides, in the data set with SARS-CoV-2, the EC50 is over 5 µM.
